Test results published in ChEMBL document CHEMBL4138232, “O2-(2,4-dinitrophenyl)diazeniumdiolates derivatives: Design, synthesis, cytotoxic evaluation and reversing MDR in MCF-7/ADR cells” (Eur J Med Chem, 2018).

How the values were obtained:
[1] = system: U2OS; test: Antiproliferative activity against human U2OS cells after 48 hrs by MTT assay relative to control; format: functional, cell-based
[2] = system: MDA-MB-231; test: Antiproliferative activity against human MDA-MB-231 cells after 48 hrs by MTT assay relative to control; format: functional, cell-based; settings: MDA-MB-231, 48 h
[3] = system: HCT-116; test: Cytotoxicity against human HCT116 cells overexpressing GST-Pi assessed as inhibition of cell viability at 10 uM after 48 hrs by MTT assay relative to control; format: functional; settings: HCT-116, 48 h
[4] = system: HCT-116; test: Antiproliferative activity against human HCT116 cells after 48 hrs by MTT assay relative to control; format: functional, cell-based; settings: HCT-116, 48 h
[5] = system: MCF-10A; test: Antiproliferative activity against human MCF10A cells after 48 hrs by MTT assay relative to control; format: cell-based
[6] = biological target: T1, Glutathione S-transferase P (Homo sapiens, UniProt P09211); test: Prodrug activation in human HCT116 cells assessed as GST-Pi-mediated NO release at 5 uM after 24 hrs in presence of NO scavenger carboxy-PTIO by nitrate reductase assay; format: cell-based
[7] = biological target: T1, Glutathione S-transferase P; test: Prodrug activation in human HCT116 cells assessed as GST-Pi-mediated NO release at 5 uM after 24 hrs in presence of GST-Pi inhibitor etacrynic acid by nitrate reductase assay; format: cell-based
[8] = biological target: T1, Glutathione S-transferase P; test: Prodrug activation in human HCT116 cells assessed as GST-Pi-mediated NO release at 5 uM after 24 hrs by nitrate reductase assay; format: cell-based
[9] = system: A549; test: Antiproliferative activity against human A549 cells after 48 hrs by MTT assay relative to control; format: functional, cell-based; settings: A549, 48 h
[10] = Selectivity ratio of IC50 for human HCT116 cells to IC50 for human MDA-MB-231 cells; format: functional
[11] = Cytotoxicity against ADR-sensitive human MCF7 cells assessed as inhibition of cell viability at 10 uM after 48 hrs by MTT assay relative to control; format: cell-based; settings: read-out: INH
[12] = system: MCF7; test: Cytotoxicity against ADR-sensitive human MCF7 cells assessed as inhibition of cell viability after 48 hrs by MTT assay; format: cell-based; settings: MCF7, 48 h
[13] = biological target: T1, Glutathione S-transferase P; test: Prodrug activation in human HCT116 cells assessed as GST-Pi-mediated NO release at 5 uM by nitrate reductase assay; format: cell-based
[14] = Selectivity ratio of IC50 for human A549 cells to IC50 for human MDA-MB-231 cells; format: functional
[15] = Selectivity ratio of IC50 for human MCF10A cells to IC50 for human MDA-MB-231 cells; format: toxicity; settings: MCF10A cells versus MDA-MB-231 cells, read-out: Ratio IC50
[16] = species on record: Homo sapiens; test: Inhibition of MDR in human MCF7/ADR cells assessed as potentiation of adriamycin-induced antiproliferative activity by measuring fold reduction in adriamycin IC50 at 10 uM after 48 hrs by MTT assay; format: cell-based
[17] = Selectivity ratio of IC50 for human U2OS cells to IC50 for human MDA-MB-231 cells; format: functional

T1 sequence (P09211 whole entry): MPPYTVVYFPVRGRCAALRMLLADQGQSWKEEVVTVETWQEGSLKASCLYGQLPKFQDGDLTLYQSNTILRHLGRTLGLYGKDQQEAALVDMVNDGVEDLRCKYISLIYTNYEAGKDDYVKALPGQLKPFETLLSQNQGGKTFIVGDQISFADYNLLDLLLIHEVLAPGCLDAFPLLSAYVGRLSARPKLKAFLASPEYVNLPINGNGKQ

SMILES | IC50 [1] | IC50 [2] | inhibition at 10 µM [3] | IC50 [4] | IC50 [5] | Drug metabolism [6] | Drug metabolism [7] | Drug metabolism [8] | IC50 [9] | Ratio IC50 [10] | cytotoxicity at 48 h, 10 µM [11] | IC50 [12] | Drug metabolism [13] | Ratio IC50 [14] | selectivity ratio [15] | fold change (FC) [16] | Ratio IC50 [17]
CCOC(=O)N1CCN(/[N+]([O-])=N/Oc2ccc([N+](=O)[O-])cc2[N+](=O)[O-])CC1 | 6.27 µM | 5.75 µM | 78% | 4.86 µM | 4.91 µM | Metabolite_Notdetected | Metabolite_Notdetected | Metabolite_Detected | 6.53 µM |  |  |  |  |  |  |  | 
CC(=O)N1N=C(c2cccc(Oc3cc(O/N=[N+](\[O-])N4CCOCC4)c([N+](=O)[O-])cc3[N+](=O)[O-])c2)CC1c1ccc(C)cc1 (configuration not stated) | 3.86 µM | 3.85 µM | 77.8% | 4.44 µM | 11.9 µM | Metabolite_Notdetected | Metabolite_Notdetected |  | 1.87 µM | 1.1 | 20.2% | 21.6 µM | Dose-dependent effect | 0.5 | 3.1 | 49.7 | 1
COc1ccc(C2CC(c3cccc(Oc4cc(O/N=[N+](\[O-])N5CCCCC5)c([N+](=O)[O-])cc4[N+](=O)[O-])c3)=NN2C(C)=O)cc1OC (configuration not stated) | 6.74 µM | 1.37 µM | 80.9% | 1.43 µM | 18.7 µM | Metabolite_Notdetected | Metabolite_Notdetected | Metabolite_Detected | 1.02 µM | 1 | 17.2% | 25.2 µM |  | 0.7 | 13.6 | 71.7 | 4.9
CC(=O)N1N=C(c2cccc(Oc3cc(O/N=[N+](\[O-])N4CCCCC4)c([N+](=O)[O-])cc3[N+](=O)[O-])c2)CC1c1ccc(C)cc1 (configuration not stated) | 9.43 µM | 4.57 µM | 75.9% | 1.3 µM | 70.9 µM | Metabolite_Notdetected | Metabolite_Notdetected | Metabolite_Detected | 7.31 µM | 0.3 | 5.16% | 22.8 µM |  | 1.6 | 15.5 | 18 | 2.1
Cc1ccc(/C=C/C(=O)c2cccc(Oc3cc(O/N=[N+](\[O-])N4CCOCC4)c([N+](=O)[O-])cc3[N+](=O)[O-])c2)cc1 | 5.26 µM | 2.03 µM | 61.2% | 4.08 µM | 44.7 µM | Metabolite_Notdetected | Metabolite_Notdetected |  | 3.15 µM | 2 | 21.3% | 18.8 µM |  | 1.5 | 22 | 46.9 | 2.6
COc1cc(C2CC(c3cccc(Oc4cc(O/N=[N+](\[O-])N5CCOCC5)c([N+](=O)[O-])cc4[N+](=O)[O-])c3)=NN2C(C)=O)cc(OC)c1OC (configuration not stated) | 6.13 µM | 1.44 µM | 76.2% | 6.46 µM | 59.4 µM |  |  |  | 6.11 µM | 6.5 | 13.3% | 44.3 µM | Dose-dependent effect | 4.2 | 41.2 | 1.53 | 4.2
CC(=O)N1N=C(c2cccc(Oc3cc(O/N=[N+](\[O-])N4CCOCC4)c([N+](=O)[O-])cc3[N+](=O)[O-])c2)CC1c1ccc(N(C)C)cc1 (configuration not stated) | 2.46 µM | 2.9 µM | 78.3% | 2.7 µM | 16.4 µM | Metabolite_Notdetected | Metabolite_Notdetected |  | 1.97 µM | 0.9 | 21.9% | 22 µM | Dose-dependent effect | 0.7 | 5.6 | 33.4 | 0.8
COc1ccc(/C=C/C(=O)c2cccc(Oc3cc(O/N=[N+](\[O-])N4CCOCC4)c([N+](=O)[O-])cc3[N+](=O)[O-])c2)cc1 | 5.19 µM | 5.34 µM | 68.7% | 4.91 µM | 16.6 µM |  |  |  | 5.9 µM | 0.9 | 5.4% | 29.9 µM |  | 1.1 | 3.1 | 64.2 | 1
COc1ccc(C2CC(c3cccc(Oc4cc(O/N=[N+](\[O-])N5CCOCC5)c([N+](=O)[O-])cc4[N+](=O)[O-])c3)=NN2C(C)=O)cc1 (configuration not stated) | 3.69 µM | 2.11 µM | 79.9% | 5.58 µM | 12.9 µM |  |  |  | 2.86 µM | 2.6 | 21.2% | 31.9 µM | Dose-dependent effect | 1.3 | 6.1 | 56.6 | 1.7
COc1cc(/C=C/C(=O)c2cccc(Oc3cc(O/N=[N+](\[O-])N4CCOCC4)c([N+](=O)[O-])cc3[N+](=O)[O-])c2)cc(OC)c1OC | 5.17 µM | 1.18 µM | 77.6% | 2.92 µM | 13.8 µM | Metabolite_Notdetected | Metabolite_Notdetected |  | 1.96 µM | 2.4 | 21.5% | 20.9 µM |  | 1.7 | 11.7 | 72.3 | 4.4
COc1cc(/C=C/C(=O)c2cccc(Oc3cc(O/N=[N+](\[O-])N4CCCCC4)c([N+](=O)[O-])cc3[N+](=O)[O-])c2)cc(OC)c1OC | 4.65 µM | 3.42 µM | 63.7% | 5.29 µM | 80.8 µM |  |  |  | 4.65 µM | 1.5 | 19.2% | 30.4 µM |  | 1.4 | 23.6 | 42.5 | 1.4
CC(=O)N1N=C(c2cccc(Oc3cc(O/N=[N+](\[O-])N4CCCCC4)c([N+](=O)[O-])cc3[N+](=O)[O-])c2)CC1c1ccc(N(C)C)cc1 (configuration not stated) | 6.3 µM | 5.29 µM | 81.3% | 3.43 µM | 95.3 µM | Metabolite_Notdetected | Metabolite_Notdetected | Metabolite_Detected | 7.66 µM | 0.6 | 13.4% | 20.2 µM |  | 1.4 | 18 | 26.6 | 1.2
COc1ccc(/C=C/C(=O)c2cccc(Oc3cc(O/N=[N+](\[O-])N4CCCCC4)c([N+](=O)[O-])cc3[N+](=O)[O-])c2)cc1OC | 11.4 µM | 11.1 µM | 66.1% | 8.88 µM | 95.9 µM |  |  |  | 9.63 µM | 0.8 | 8.24% | 32.7 µM |  | 0.9 | 8.6 | 10.2 | 1
COc1ccc(/C=C/C(=O)c2cccc(Oc3cc(O/N=[N+](\[O-])N4CCOCC4)c([N+](=O)[O-])cc3[N+](=O)[O-])c2)cc1OC | 5.77 µM | 6.1 µM | 75.6% | 4.59 µM | 62.1 µM | Metabolite_Notdetected | Metabolite_Notdetected | Metabolite_Detected | 5.99 µM | 0.7 | 18% | 28.3 µM |  | 1 | 10.2 | 66.3 | 0.9
